Measurements from ChEMBL document CHEMBL4819072, “Radioligand and computational insight in structure - Activity relationship of saccharin derivatives being ipsapirone and revospirone analogues” (Bioorg Med Chem Lett, 2021).

Tests used:
[1] = biological target: T1, 5-hydroxytryptamine receptor 1A (Homo sapiens, UniProt P08908); assay: Displacement of [3H]-[…] from human 5-HT1AR expressed in human HEK293 cells; assay type: cell-based
T1 sequence (P08908 whole entry): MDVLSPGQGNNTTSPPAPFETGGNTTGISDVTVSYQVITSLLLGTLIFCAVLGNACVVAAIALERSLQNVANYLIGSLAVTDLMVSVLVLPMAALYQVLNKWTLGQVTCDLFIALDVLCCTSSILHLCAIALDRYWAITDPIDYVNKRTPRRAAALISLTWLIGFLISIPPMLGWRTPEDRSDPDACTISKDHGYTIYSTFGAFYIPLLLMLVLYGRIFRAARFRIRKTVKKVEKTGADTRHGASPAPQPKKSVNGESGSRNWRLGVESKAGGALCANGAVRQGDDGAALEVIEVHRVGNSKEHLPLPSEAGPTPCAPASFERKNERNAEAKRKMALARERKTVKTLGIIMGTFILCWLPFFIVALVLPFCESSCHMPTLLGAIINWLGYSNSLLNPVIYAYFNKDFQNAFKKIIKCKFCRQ

[2] = biological target: 5-hydroxytryptamine receptor 7 (Homo sapiens, UniProt P34969); assay: Displacement of [3H]-5CT from human 5-HT7R expressed in human HEK293 cells; assay type: cell-based
Sequence of 5-hydroxytryptamine receptor 7 (P34969 whole entry): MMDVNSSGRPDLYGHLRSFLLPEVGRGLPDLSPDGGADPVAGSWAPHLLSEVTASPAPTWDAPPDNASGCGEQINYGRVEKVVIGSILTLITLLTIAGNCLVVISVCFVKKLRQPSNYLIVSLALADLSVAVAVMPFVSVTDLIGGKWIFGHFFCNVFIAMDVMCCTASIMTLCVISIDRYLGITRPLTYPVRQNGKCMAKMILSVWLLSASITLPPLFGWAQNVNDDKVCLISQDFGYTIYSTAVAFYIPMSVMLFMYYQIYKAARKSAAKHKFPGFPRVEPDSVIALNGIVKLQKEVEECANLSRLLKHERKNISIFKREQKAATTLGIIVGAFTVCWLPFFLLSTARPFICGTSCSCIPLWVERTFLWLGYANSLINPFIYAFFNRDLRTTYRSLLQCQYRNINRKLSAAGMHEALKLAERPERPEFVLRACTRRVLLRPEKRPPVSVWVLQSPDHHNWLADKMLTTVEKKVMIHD

[3] = biological target: 5-hydroxytryptamine receptor 6 (Homo sapiens, UniProt P50406); assay: Displacement of [3H]-LSD from human 5-HT6R expressed in human HEK293 cells; assay type: cell-based
Sequence of 5-hydroxytryptamine receptor 6 (P50406 whole entry): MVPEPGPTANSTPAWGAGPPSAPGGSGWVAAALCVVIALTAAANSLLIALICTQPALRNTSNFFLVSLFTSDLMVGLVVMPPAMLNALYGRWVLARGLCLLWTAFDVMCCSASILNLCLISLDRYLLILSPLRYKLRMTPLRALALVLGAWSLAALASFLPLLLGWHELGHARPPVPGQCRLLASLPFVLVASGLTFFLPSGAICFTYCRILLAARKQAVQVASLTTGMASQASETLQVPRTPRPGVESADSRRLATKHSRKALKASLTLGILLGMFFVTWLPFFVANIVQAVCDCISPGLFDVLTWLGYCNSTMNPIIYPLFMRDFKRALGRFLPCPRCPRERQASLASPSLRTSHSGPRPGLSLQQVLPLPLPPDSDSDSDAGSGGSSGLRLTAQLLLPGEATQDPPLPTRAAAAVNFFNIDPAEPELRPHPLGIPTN

D(2) dopamine receptor = D(2) dopamine receptor (Homo sapiens, UniProt P14416); assay: Displacement of [3H]-raclopride from human D2R expressed in human HEK293 cells; assay type: cell-based
Sequence of D(2) dopamine receptor (P14416 whole entry): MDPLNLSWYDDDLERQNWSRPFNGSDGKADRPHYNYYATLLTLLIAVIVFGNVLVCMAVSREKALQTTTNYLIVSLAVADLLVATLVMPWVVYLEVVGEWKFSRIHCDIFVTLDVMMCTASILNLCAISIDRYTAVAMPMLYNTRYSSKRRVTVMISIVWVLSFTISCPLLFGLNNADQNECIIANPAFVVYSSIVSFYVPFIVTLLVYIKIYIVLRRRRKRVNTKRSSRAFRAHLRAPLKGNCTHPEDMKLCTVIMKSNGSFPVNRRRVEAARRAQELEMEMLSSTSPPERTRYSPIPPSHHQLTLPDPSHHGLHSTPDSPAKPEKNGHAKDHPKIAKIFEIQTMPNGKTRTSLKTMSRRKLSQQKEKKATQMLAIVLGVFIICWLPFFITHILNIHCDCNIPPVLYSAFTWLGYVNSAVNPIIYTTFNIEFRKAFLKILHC

[4] = biological target: 5-hydroxytryptamine receptor 2A (Homo sapiens, UniProt P28223); assay: Displacement of [3H]-ketanserin from human 5-HT2AR expressed in CHO cells; assay type: cell-based
Sequence of 5-hydroxytryptamine receptor 2A (P28223 whole entry): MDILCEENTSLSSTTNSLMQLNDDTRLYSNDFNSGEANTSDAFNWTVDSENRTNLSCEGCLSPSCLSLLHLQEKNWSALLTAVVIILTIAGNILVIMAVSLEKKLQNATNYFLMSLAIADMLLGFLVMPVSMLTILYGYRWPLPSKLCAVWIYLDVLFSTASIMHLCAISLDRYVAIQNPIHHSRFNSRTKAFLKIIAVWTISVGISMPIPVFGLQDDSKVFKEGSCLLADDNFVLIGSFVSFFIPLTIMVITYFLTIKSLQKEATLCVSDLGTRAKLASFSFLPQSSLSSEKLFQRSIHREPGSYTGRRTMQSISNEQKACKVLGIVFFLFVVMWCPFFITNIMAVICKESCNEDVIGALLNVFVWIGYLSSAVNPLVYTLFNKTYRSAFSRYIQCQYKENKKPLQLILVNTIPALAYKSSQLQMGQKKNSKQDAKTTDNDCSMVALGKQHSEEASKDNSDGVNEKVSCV

D(4) dopamine receptor = biological target: T2, D(4) dopamine receptor (Homo sapiens, UniProt P21917); assay: Binding affinity to human D4R
T2 sequence (P21917 whole entry): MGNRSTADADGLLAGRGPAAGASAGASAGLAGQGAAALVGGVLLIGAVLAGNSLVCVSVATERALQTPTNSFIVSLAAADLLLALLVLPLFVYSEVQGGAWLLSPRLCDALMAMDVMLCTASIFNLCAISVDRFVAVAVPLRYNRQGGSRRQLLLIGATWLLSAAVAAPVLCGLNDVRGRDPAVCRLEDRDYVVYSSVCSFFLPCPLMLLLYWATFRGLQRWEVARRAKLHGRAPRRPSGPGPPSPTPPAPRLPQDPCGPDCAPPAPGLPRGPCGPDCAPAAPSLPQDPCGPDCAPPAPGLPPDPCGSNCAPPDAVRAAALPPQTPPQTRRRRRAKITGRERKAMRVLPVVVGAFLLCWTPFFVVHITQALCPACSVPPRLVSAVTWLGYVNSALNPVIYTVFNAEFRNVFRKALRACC

[5] = biological target: T3, 5-hydroxytryptamine receptor 2C (Homo sapiens, UniProt P28335); assay: Binding affinity to human 5-HT2C
T3 sequence (P28335 whole entry): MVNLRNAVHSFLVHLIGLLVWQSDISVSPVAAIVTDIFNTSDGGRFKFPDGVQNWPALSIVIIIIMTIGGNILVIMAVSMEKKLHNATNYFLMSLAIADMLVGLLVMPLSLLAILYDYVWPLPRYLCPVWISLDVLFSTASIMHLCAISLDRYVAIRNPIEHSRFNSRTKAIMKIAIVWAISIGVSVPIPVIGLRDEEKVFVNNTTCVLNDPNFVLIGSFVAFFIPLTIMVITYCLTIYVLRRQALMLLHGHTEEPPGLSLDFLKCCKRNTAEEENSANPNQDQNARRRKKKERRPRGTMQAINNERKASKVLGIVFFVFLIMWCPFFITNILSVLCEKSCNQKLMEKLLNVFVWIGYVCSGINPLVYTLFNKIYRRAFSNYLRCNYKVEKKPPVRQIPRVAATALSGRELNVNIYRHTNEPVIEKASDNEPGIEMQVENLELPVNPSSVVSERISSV

[6] = biological target: T4, Adrenergic receptor alpha-1 (Homo sapiens, UniProt P35348+P25100+P35368); assay: Binding affinity to human adrenergic receptor alpha1; assay type: protein assay
T4 sequence (P35348 whole entry): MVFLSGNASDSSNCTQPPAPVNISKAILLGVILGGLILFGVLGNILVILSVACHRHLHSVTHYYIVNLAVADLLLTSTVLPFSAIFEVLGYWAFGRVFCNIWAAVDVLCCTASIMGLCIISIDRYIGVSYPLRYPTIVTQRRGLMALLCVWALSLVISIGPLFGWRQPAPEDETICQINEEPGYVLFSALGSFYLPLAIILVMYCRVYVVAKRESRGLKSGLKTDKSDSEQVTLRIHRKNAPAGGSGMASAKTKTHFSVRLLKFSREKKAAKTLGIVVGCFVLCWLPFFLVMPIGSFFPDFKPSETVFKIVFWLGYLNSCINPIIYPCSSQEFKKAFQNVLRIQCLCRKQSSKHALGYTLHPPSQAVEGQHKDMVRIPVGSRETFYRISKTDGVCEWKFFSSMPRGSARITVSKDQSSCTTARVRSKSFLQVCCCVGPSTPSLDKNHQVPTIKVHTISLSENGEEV
T4 sequence (P25100 whole entry): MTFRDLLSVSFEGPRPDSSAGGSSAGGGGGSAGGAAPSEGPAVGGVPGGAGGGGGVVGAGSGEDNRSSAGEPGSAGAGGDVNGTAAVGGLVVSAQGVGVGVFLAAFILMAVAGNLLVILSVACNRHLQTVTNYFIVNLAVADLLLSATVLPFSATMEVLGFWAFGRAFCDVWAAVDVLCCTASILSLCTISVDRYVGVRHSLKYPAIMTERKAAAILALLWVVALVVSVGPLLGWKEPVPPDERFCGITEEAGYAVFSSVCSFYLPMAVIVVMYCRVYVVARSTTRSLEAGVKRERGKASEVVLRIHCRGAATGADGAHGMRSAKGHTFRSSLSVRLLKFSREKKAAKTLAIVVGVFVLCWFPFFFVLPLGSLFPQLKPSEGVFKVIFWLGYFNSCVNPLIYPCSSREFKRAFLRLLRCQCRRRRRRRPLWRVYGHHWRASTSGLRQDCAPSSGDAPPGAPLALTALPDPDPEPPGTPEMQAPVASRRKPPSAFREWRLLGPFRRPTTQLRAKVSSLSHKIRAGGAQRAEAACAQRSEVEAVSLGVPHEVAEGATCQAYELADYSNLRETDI
T4 sequence (P35368 whole entry): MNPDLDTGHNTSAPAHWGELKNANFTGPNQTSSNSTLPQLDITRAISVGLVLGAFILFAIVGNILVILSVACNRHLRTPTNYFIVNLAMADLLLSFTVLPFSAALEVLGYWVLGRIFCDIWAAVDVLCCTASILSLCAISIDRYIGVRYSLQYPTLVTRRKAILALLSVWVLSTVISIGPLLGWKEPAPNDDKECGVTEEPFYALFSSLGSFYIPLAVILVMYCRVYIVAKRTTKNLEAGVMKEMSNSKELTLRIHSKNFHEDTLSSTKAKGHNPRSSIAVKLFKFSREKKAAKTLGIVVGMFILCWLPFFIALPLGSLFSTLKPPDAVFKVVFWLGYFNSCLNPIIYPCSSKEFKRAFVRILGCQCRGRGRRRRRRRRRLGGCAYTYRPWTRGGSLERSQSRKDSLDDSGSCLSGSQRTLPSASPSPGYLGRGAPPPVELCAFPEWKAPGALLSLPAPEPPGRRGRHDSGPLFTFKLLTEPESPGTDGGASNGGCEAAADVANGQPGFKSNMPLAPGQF

SMILES | Ki [1] | Ki [2] | Ki [3] | Ki [4] | further results
O=C1c2ccccc2C(=O)N1CCCCCN1CCN(c2ccccc2)CC1 | 8.5 nM | – | – | – | –
O=C1c2ccccc2S(=O)(=O)N1CCCCCN1CCN(c2cccc(C(F)(F)F)c2)CC1 | 21 nM | 35 nM | 1350 nM | 162 nM | Ki (D(2) dopamine receptor): 34 nM
O=C1c2ccccc2S(=O)(=O)N1CCCCN1CCN(c2ccccc2)CC1 | – | – | – | – | Ki (D(4) dopamine receptor): 136 nM
COc1cccc(N2CCN(CCCN3C(=O)c4ccccc4C3=O)CC2)c1 | 13 nM | – | – | – | –
O=C1c2ccccc2S(=O)(=O)N1CCCCCN1CCN(c2ccccn2)CC1 | 13 nM | 179 nM | 2630 nM | 1440 nM | Ki (D(2) dopamine receptor): 92 nM
COc1cccc(N2CCN(CCOc3ccccc3C(N)=O)CC2)c1 | 155 nM | – | – | – | –
COc1ccccc1N1CCN(CCCCN2C(=O)c3ccccc3S2(=O)=O)CC1 | – | – | – | – | Ki (D(4) dopamine receptor): 79 nM
O=C1c2ccccc2S(=O)(=O)N1CCCCN1CCN(c2cccc(Cl)c2Cl)CC1 | 1 nM | 372 nM | 2660 nM | 2580 nM | Ki (D(2) dopamine receptor): 26 nM
O=C1c2ccccc2C(=O)N1CCCCCCN1CCN(c2ccccc2)CC1 | 1 nM | – | – | – | –
O=C1c2ccccc2S(=O)(=O)N1CCCCCN1CCN(c2ncccn2)CC1 | 6 nM | 2670 nM | 7100 nM | 6310 nM | Ki (D(2) dopamine receptor): 954 nM
COc1cccc(N2CCN(CCCCCOc3ccccc3C(N)=O)CC2)c1 | 4 nM | – | – | – | –
COc1cccc(N2CCN(CCN3C(=O)c4ccccc4C3=O)CC2)c1 | > 1000 nM | – | – | – | –
O=C1c2ccccc2S(=O)(=O)N1CCCN1CCN(c2cccc(C(F)(F)F)c2)CC1 | 400 nM | – | – | 700 nM | Ki [5]: > 5000 nM
O=C1c2ccccc2S(=O)(=O)N1CCCCCN1CCN(c2ccccc2)CC1 | 16 nM | 148 nM | 1840 nM | 313 nM | Ki (D(2) dopamine receptor): 165 nM
COc1cccc(N2CCN(CCCCCn3c(=O)oc4ccccc4c3=O)CC2)c1 | 20 nM | – | – | – | –
COc1cccc(N2CCN(CCCn3c(=O)oc4ccccc4c3=O)CC2)c1 | 46 nM | – | – | – | –
COc1cccc(N2CCN(CCCCOc3ccccc3C(N)=O)CC2)c1 | 38 nM | – | – | – | –
COc1cccc(N2CCN(CCCOc3ccccc3C(N)=O)CC2)c1 | 21 nM | – | – | – | –
COc1cccc(N2CCN(CCCCn3c(=O)oc4ccccc4c3=O)CC2)c1 | 3.2 nM | – | – | – | –
O=C1c2ccccc2S(=O)(=O)N1CCCN1CCN(c2ncccn2)CC1 [REVOSPIRONE] | 2 nM | – | – | – | –
NC(=O)c1ccccc1OCCCN1CCN(c2ccccc2)CC1 | 143 nM | – | – | – | –

SMILES | Ki [1] | Ki [2] | Ki [3] | Ki [4] | further results
O=C1c2ccccc2S(=O)(=O)N1CCN1CCN(c2cccc(C(F)(F)F)c2)CC1 | > 5000 nM | – | – | – | –
COc1ccccc1N1CCN(CCCCCN2C(=O)c3ccccc3S2(=O)=O)CC1 | 3 nM | 125 nM | 1990 nM | 584 nM | Ki (D(2) dopamine receptor): 20 nM
O=C1c2ccccc2S(=O)(=O)N1CCCCCN1CCN(c2cccc(Cl)c2Cl)CC1 | 29 nM | 149 nM | 197 nM | 126 nM | Ki (D(2) dopamine receptor): 17 nM
O=C1c2ccccc2C(=O)N1CCCN1CCN(c2ccccc2)CC1 | 200 nM | – | – | – | –
O=C1c2ccccc2S(=O)(=O)N1CCCCN1CCN(c2ncccn2)CC1 [IPSAPIRONE] | 7.9 nM | 1410 nM | 16800 nM | 15000 nM | Ki [6]: 229 nM
COc1ccccc1N1CCN(Cc2ccc(CN3C(=O)c4ccccc4S3(=O)=O)cc2)CC1 | 77 nM | 97 nM | 10100 nM | 4750 nM | Ki (D(2) dopamine receptor): 2 nM
O=C1c2ccccc2S(=O)(=O)N1CCCCCN1CCN(c2ccc(Cl)cc2)CC1 | 101 nM | 191 nM | 703 nM | 139 nM | Ki (D(2) dopamine receptor): 254 nM
O=C1c2ccccc2S(=O)(=O)N1CCCCCCN1CCN(c2ncccn2)CC1 | – | 2510 nM | 5710 nM | – | –
O=C1c2ccccc2C(=O)N1CCCCN1CCN(c2ccccc2)CC1 | 10 nM | – | – | – | –
O=C1c2ccccc2S(=O)(=O)N1CCCCCCN1CCN(c2ccc(Cl)cc2)CC1 | – | 487 nM | 72 nM | 299 nM | –
COc1ccccc1N1CCN(CCCCCCN2C(=O)c3ccccc3C2=O)CC1 | 22 nM | – | – | – | –
O=c1oc2ccccc2c(=O)n1CCCCN1CCN(c2ccccc2)CC1 | 2.8 nM | – | – | – | –
COc1ccccc1N1CCN(CCCCCCN2C(=O)c3ccccc3S2(=O)=O)CC1 | 10 nM | 105 nM | 779 nM | 764 nM | Ki (D(2) dopamine receptor): 1 nM
COc1ccccc1N1CCN(CCCCCCOc2ccccc2C(N)=O)CC1 | 3 nM | – | – | – | –
COc1cccc(N2CCN(CCCCCCn3c(=O)oc4ccccc4c3=O)CC2)c1 | 18 nM | – | – | – | –
O=C1c2ccccc2S(=O)(=O)N1CCCCCCN1CCN(c2cccc(Cl)c2Cl)CC1 | – | 487 nM | 72 nM | 299 nM | –
O=c1oc2ccccc2c(=O)n1CCCN1CCN(c2ccccc2)CC1 | 402 nM | – | – | – | –
O=C1c2ccccc2C(=O)N1CCN1CCN(c2ccccc2)CC1 | > 1000 nM | – | – | – | –
COc1ccccc1N1CCN(CCCCCN2C(=O)c3ccccc3C2=O)CC1 | 7.2 nM | – | – | – | –
O=C1c2ccccc2S(=O)(=O)N1CCCCCN1CCN(c2cccc3ccccc23)CC1 | 16 nM | 36 nM | 101 nM | 105 nM | Ki (D(2) dopamine receptor): 20 nM
O=C1c2ccccc2S(=O)(=O)N1CCCCN1CCN(c2ccc(Cl)cc2)CC1 | – | – | – | – | Ki (D(4) dopamine receptor): 36 nM
